Experimental data reported in PubChem BioAssay (NCI).
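Protocol summary: plate cells (96-well), add compound at 5 concentrations, incubate 48 h, interpolate endpoints linearly. Here, GI50 denotes the concentration required for 50% inhibition of growth. TGI denotes the concentration required for complete inhibition of growth.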

How the values were obtained:
Experiment in all cases: growth of human tumour cells (NCI), 48 h
CAKI-1 renal = system: CAKI-1 renal
UACC-62 melanoma = system: UACC-62 melanoma
HS 578T breast = system: HS 578T breast
SK-MEL-5 melanoma = system: SK-MEL-5 melanoma
SF-539 CNS = system: SF-539 CNS
MALME-3M melanoma = system: MALME-3M melanoma
SK-OV-3 ovarian = system: SK-OV-3 ovarian
ACHN renal = system: ACHN renal
HOP-92 NSCLC = system: HOP-92 NSCLC
SR leukemia = system: SR leukemia
BT-549 breast = system: BT-549 breast
SF-295 CNS = system: SF-295 CNS
RPMI-8226 leukemia = system: RPMI-8226 leukemia
SN12C renal = system: SN12C renal
OVCAR-8 ovarian = system: OVCAR-8 ovarian
SK-MEL-28 melanoma = system: SK-MEL-28 melanoma
EKVX NSCLC = system: EKVX NSCLC
A498 renal = system: A498 renal
HT29 colon = system: HT29 colon
UO-31 renal = system: UO-31 renal
786-0 renal = system: 786-0 renal
IGROV1 ovarian = system: IGROV1 ovarian
NCI-H460 lung = system: NCI-H460 lung
HL-60(TB) leukemia = system: HL-60(TB) leukemia
A549 NSCLC = system: A549 NSCLC
SNB-75 CNS = system: SNB-75 CNS
DU-145 prostate = system: DU-145 prostate
HCT-15 colon = system: HCT-15 colon
MDA-MB-435 = system: MDA-MB-435
SF-268 CNS = system: SF-268 CNS
HOP-62 NSCLC = system: HOP-62 NSCLC
CCRF-CEM leukemia = system: CCRF-CEM leukemia
MOLT-4 leukemia = system: MOLT-4 leukemia
K-562 leukemia = system: K-562 leukemia
SW-620 colon = system: SW-620 colon
OVCAR-4 ovarian = system: OVCAR-4 ovarian
HCC-2998 colon = system: HCC-2998 colon
OVCAR-3 ovarian = system: OVCAR-3 ovarian
PC-3 prostate = system: PC-3 prostate
SK-MEL-2 melanoma = system: SK-MEL-2 melanoma
SNB-19 CNS = system: SNB-19 CNS
MDA-MB-231 breast = system: MDA-MB-231 breast
OVCAR-5 ovarian = system: OVCAR-5 ovarian
UACC-257 melanoma = system: UACC-257 melanoma
NCI/ADR-RES ovarian = system: NCI/ADR-RES ovarian
TK-10 renal = system: TK-10 renal
RXF 393 renal = system: RXF 393 renal
NCI-H23 lung = system: NCI-H23 lung
KM12 colon = system: KM12 colon
U251 CNS = system: U251 CNS
NCI-H226 lung = system: NCI-H226 lung

## CC(=O)Nc1ccc(NC(=O)Nc2cccc(-c3nc(-c4ccc(NC(=O)c5cccnc5)cc4Cl)no3)c2)cc1C(F)(F)F
CAKI-1 renal
  GI50: 570 nM
  TGI: 1970 nM
UACC-62 melanoma
  GI50: 412 nM
  TGI: 1630 nM
HS 578T breast
  GI50: 503 nM
  TGI: 2990 nM
SK-MEL-5 melanoma
  GI50: 612 nM
  TGI: 1930 nM
SF-539 CNS
  GI50: 341 nM
  TGI: 1250 nM
MALME-3M melanoma
  GI50: 479 nM
  TGI: 1740 nM
SK-OV-3 ovarian
  GI50: 1290 nM
  TGI: 3030 nM
ACHN renal
  GI50: 6040 nM
  TGI: > 100000 nM
HOP-92 NSCLC
  GI50: 1280 nM
  TGI: 3010 nM
SR leukemia
  GI50: 296 nM
  TGI: 2350 nM
BT-549 breast
  GI50: 1120 nM
  TGI: 3040 nM
SF-295 CNS
  GI50: 454 nM
  TGI: 1370 nM
RPMI-8226 leukemia
  GI50: 538 nM
  TGI: 2900 nM
SN12C renal
  GI50: 685 nM
  TGI: 2120 nM
OVCAR-8 ovarian
  GI50: 712 nM
  TGI: 3250 nM
SK-MEL-28 melanoma
  GI50: 890 nM
  TGI: 2200 nM
EKVX NSCLC
  GI50: 1400 nM
  TGI: 9160 nM
A498 renal
  GI50: 435 nM
  TGI: 1510 nM
HT29 colon
  GI50: 380 nM
  TGI: 1690 nM
UO-31 renal
  GI50: 4300 nM
  TGI: > 35700 nM
786-0 renal
  GI50: 1120 nM
  TGI: 2720 nM
IGROV1 ovarian
  GI50: 739 nM
  TGI: 2340 nM
NCI-H460 lung
  GI50: 411 nM
  TGI: 1480 nM
HL-60(TB) leukemia
  GI50: 307 nM
  TGI: 1130 nM
A549 NSCLC
  GI50: 1070 nM
  TGI: 4430 nM
SNB-75 CNS
  GI50: 217 nM
  TGI: 814 nM
DU-145 prostate
  GI50: 519 nM
  TGI: 4320 nM
HCT-15 colon
  GI50: 2080 nM
  TGI: > 100000 nM
MDA-MB-435
  GI50: 174 nM
  TGI: 406 nM
SF-268 CNS
  GI50: 1100 nM
  TGI: 3380 nM
HOP-62 NSCLC
  GI50: 739 nM
  TGI: 2700 nM
CCRF-CEM leukemia
  GI50: 395 nM
  TGI: > 100000 nM
MOLT-4 leukemia
  GI50: 620 nM
  TGI: 3000 nM
K-562 leukemia
  GI50: 320 nM
  TGI: 1760 nM
SW-620 colon
  GI50: 430 nM
  TGI: 1860 nM
OVCAR-4 ovarian
  GI50: 1070 nM
  TGI: 2620 nM
HCC-2998 colon
  GI50: 998 nM
  TGI: 2560 nM
OVCAR-3 ovarian
  GI50: 382 nM
  TGI: 1420 nM
PC-3 prostate
  GI50: 477 nM
  TGI: 2180 nM
SK-MEL-2 melanoma
  GI50: 1270 nM
  TGI: 3290 nM
SNB-19 CNS
  GI50: 477 nM
  TGI: 2150 nM
MDA-MB-231 breast
  GI50: 658 nM
  TGI: 2330 nM
OVCAR-5 ovarian
  GI50: 987 nM
  TGI: 2640 nM
UACC-257 melanoma
  GI50: 1130 nM
  TGI: 2930 nM
NCI/ADR-RES ovarian
  GI50: > 100000 nM
  TGI: > 100000 nM
TK-10 renal
  GI50: 1990 nM
  TGI: 4670 nM
RXF 393 renal
  GI50: 359 nM
  TGI: 1130 nM
NCI-H23 lung
  GI50: 601 nM
  TGI: 2190 nM
KM12 colon
  GI50: 438 nM
  TGI: 1790 nM
U251 CNS
  GI50: 564 nM
  TGI: 2260 nM
NCI-H226 lung
  GI50: 729 nM
  TGI: 2240 nM
